Assay results from patent US20230381170A1, “METHOD FOR TREATING ALS/FTD THROUGH DEGRADATION OF RNA REPEAT EXPANSION” (University of Florida Research Foundation, Incorporated, priority 2020, published 2023).
Like-named read-outs stand apart in the source and are kept apart here.

How the values were obtained:
r(G2C4)8 = experiment: Biolayer interferometry (BLI) binding
Experimental: (§1) Biolayer Interferometry (BLI). BLI studies were performed similarly as previously described (12) using an Octet RED96. Briefly, 5′-biotinylated nucleic acids were folded by heating at 95° C. for 4 min in 10 mM sodium phosphate buffer, pH 7, followed by slowly cooling to room temperature. Then, to the folded RNA were added the following components: 1.386 mL 1×DPBS (21-031-CV, Corning), 180 μL freshly prepared 1% (w/v) BSA, 36 μL 1% (v/v) Tween-20, and 18 μL DMSO (1% final concentration) in a final volume of 1.8 mL. The final concentration of RNA was 0.5 μM. Separately, serial dilutions of the compound of interest were prepared in the same buffer.
(§2) Streptavidin sensors (SA, #18-5019, ForteBio) were equilibrated with buffer for 10 min at room temperature using 96-well black microplate (Greiner; Catalog #: 655209). The following time intervals were used during data acquisition (30° C. with shaking at 1000 rpm): baseline step, 180 s; loading of RNA, 900 s; washing, 180 s; association of compound, 1800 s; and dissociation of compound, 1800 s. The resulting curves were analyzed and processed using Octet Data Analysis software version 9.1 by subtracting the response of the sensors recorded upon incubation with solutions containing compound and no RNA (parallel reference). The data were then fitted assuming reversible binding using the entire time interval for association and dissociation using either 1:1 or the 2:1 heterogeneous binding curve fitting model. The reported Kd,n, kon,n and koff,n values represent the average of two independent experiments.

d(G4C2)8 = experiment: Biolayer interferometry (BLI) binding; details: for Kd: BLI
Experimental: as §1, §2

r(G2C2)10 = experiment: Biolayer interferometry (BLI) binding
Experimental: as §1, §2

[1] = system: C9orf72 intron 1 harboring r(G4C2)exp; experiment: C9orf72 intron 1 RT-qPCR in patient-derived LCLs; format: cell-based, human; details: disease-affected LCLs
Experimental: (§3) Measuring Levels of C9orf72 and C9orf72 Variants by RT-qPCR. LCLs were seeded in 6-well plate (˜10^6 cells in 2 mL of growth medium) and incubated overnight at 37° C. Cells were then treated with various concentrations of compound for 24 h or with G4C2-ASO and Control-ASO (100 nM), delivered by transfection with Lipofectamine RNAiMax. RNA was extracted as described above and the expression of C9orf72 variants was determined by RT-qPCR. […] For compound treatment well, medium change was performed with fresh compound every 3-4 days. RNA was extracted as described above and the expression of C9orf72 variants was determined by RT-qPCR.

r(G4C2)8 = experiment: Biolayer interferometry (BLI) binding
Experimental: as §1
The resulting curves were analyzed and processed using Octet Data Analysis software version 9.1 by subtracting the response of the sensors recorded upon incubation with solutions containing compound and no RNA (parallel reference). The data were then fitted assuming reversible binding using the entire time interval for association and dissociation using either 1:1 or the 2:1 heterogeneous binding curve fitting model. The reported Kd,n, kon,n and koff,n values represent the average of two independent experiments.

c9 patient-derived iPSCs = experiment: Cell viability; format: cell-based, human; details: 1-1000 nM
Experimental: Cell Viability. Lymphoblastoid cells were seeded in 96-well plate (˜10^4 cells/well) overnight and then treated with compounds for 48 h. The cell viability was measured by CellTiter-Fluor™ Cell Viability Assay per the manufacturer's protocol. For iPSCs, cells (diluted 1:4 after harvesting from a 100 mm dish) were seeded in Matrigel-coated 24-well plate. After 24 h, the compounds were added for 48 h and cell viability was measured by AlamarBlue™ Cell Viability Reagent (DAL1025, Thermo Fisher Scientific) per the manufacturer's protocol.

C9orf72 intron 1 [2] = experiment: C9orf72 intron 1 RT-qPCR in iPSC lines from healthy donors; format: cell-based, human
Experimental: iPSCs were treated for 4 days in Matrigel (356234, Corning) coated plates with mTeSR™1 feeder-free medium ([…] Technologies; Catalog #85850). Cells were treated in 6-well plates on day 1 and 3 with compounds diluted in 0.1% final DMSO.
Measuring Levels of C9orf72 and C9orf72 Variants by RT-qPCR. LCLs were seeded in 6-well plate (˜10^6 cells in 2 mL of growth medium) and incubated overnight at 37° C. Cells were then treated with various concentrations of compound for 24 h or with G4C2-ASO and Control-ASO (100 nM), delivered by transfection with Lipofectamine RNAiMax. RNA was extracted as described above and the expression of C9orf72 variants was determined by RT-qPCR. For iPSC and iPSC-derived motor neuron cell line, the cells were seeded into Matrigel-coated 6-well plate to ˜60% confluence before treated with 3 μM C9orf72-ASO or Control-ASO and various concentrations of compound for 1 to 2 weeks. For compound treatment well, medium change was performed with fresh compound every 3-4 days. RNA was extracted as described above and the expression of C9orf72 variants was determined by RT-qPCR.

C9orf72 intron 1 [3] = experiment: C9orf72 intron 1 RT-qPCR in LCLs from a healthy donor; format: cell-based, human
Experimental: as §3

Row | SMILES | selective for r(G4C2)8 over r(G2C4)8 (r(G2C4)8) [fold] | Kd (r(G2C4)8; BLI, read-out: Kd, 1) [nM] | selective for r(G4C2)8 over d(G4C2)8 (d(G4C2)8) [fold] | Kd (d(G4C2)8; read-out: Kd, 1) [nM] | Kd (d(G4C2)8; read-out: Kd, 2) [nM] | selective for r(G4C2)8 over r(G2C2)10 (r(G2C2)10) [fold] | Kd (r(G2C2)10; BLI, read-out: Kd, 1) [nM] | C9orf72 intron 1 levels [1] | dissociation rate (koff) compared to 2 (r(G4C2)8; BLI) | Kd (r(G4C2)8; BLI, read-out: Kd) [nM] | Kd (r(G4C2)8; BLI, read-out: Kd, 2) [nM] | bound more avidly to r(G4C2)8 than 2 (r(G4C2)8; Kd relative to 2) [fold] | toxicity (c9 patient-derived iPSCs) | C9orf72 intron 1 levels (C9orf72 intron 1 [2]) | C9orf72 intron 1 levels (C9orf72 intron 1 [3])
1 | Cc1c2ccncc2c(C)c2c1[nH]c1ccc(OCCOCCOCCNCCOCCOCCOc3ccc4[nH]c5c(C)c6ccncc6c(C)c5c4c3)cc12 [Compound 3] | ~10 | 400 | ~225 | 900 | 3600 | ~200 | 800 | no effect | slower dissociation rate | 4 ± 0.07 | 900 | ~13 | no toxicity |  | 
2 | CCOC(=O)C1=C(Nc2ccccc2)S/C(=C\c2ccc(OCCOCCOCCOCCNC(=O)CCC(=O)N(CCOCCOCCOc3ccc4[nH]c5c(C)c6ccncc6c(C)c5c4c3)CCOCCOCCOc3ccc4[nH]c5c(C)c6ccncc6c(C)c5c4c3)c(O)c2)C1=O [Compound 7] |  |  |  |  |  |  |  |  |  |  |  |  |  | no effect | did not affect
